The text below walks through data of patent EP0819124B1, “AZOLE COMPOUNDS WITH ANTIMYCOTIC ACTIVITY FOR HUMAN AND VETERINARY USE” (ZAMBON GROUP S.p.A., priority 1995, dated 1996).

In brackets after ≈: the same amount, converted by molar mass. Like-named read-outs stand apart in the source and are kept apart here. Bounds are passed on as bounds.

One assay concerns A. fumigatus. Kind of assay: In vitro antimycotic activity, macromethod of scalar broth dilutions (SDB). The format is cell-based. The note with it: Aspergillus fumigatus, 168 h. On the procedure:
(§1) The determination of the activity inhibiting the growth of mycetes was evaluated by the macromethod of scalar brothdilutions in geometrical progression (M.R. McGinnis and M.G. Rinaldi, "Antifungal drugs: mechanisms of action, drug resistance, susceptibility testing and assay of activity in biological fluids", in Antibiotic in Laboratory Medicine, Ed. V. Lorian, Baltimora 1991).
(§2) As culture media Yeast Nitrogen Base broth (YNB) and Sabouraud Dextrose broth (SDB) were used for yeasts and moulds, respectively.
(§3) The results obtained in SDB (after incubation at 28°C for 7 days) were expressed as minimum inhibiting concentrations (MIC) the growth of mycetes, while those obtained in YNB (after incubation at 35°C for 48 hours) were expressed as concentrations able to inhibit at 50% (IC50) the growth of the yeast.
(§4) As reference compounds Fluconazole, Itraconazole and Genaconazole were used.

The subject of another assay is T.mentagrophytes. Described as above. The assay is classed as cell-based, Trychophyton mentagrophytes. The note with it: Trichophyton mentagrophytes, 168 h. The method, then:
as §1, §2, §3, §4

The next assay has as its system C. albicans 1040. Kind of assay: In vitro antimycotic activity, macromethod of scalar broth dilutions (YNB). The assay is classed as cell-based, Candida albicans. On the procedure:
as §1, §2, §3, §4

The next assay has as its system C. neoformans. The description is as above. The assay is classed as cell-based. The note with it: Cryptococcus neoformans. On the procedure:
as §1, §2, §3, §4

The subject of a further assay is Candida albicans 1040. Kind of assay: In vivo antimycotic activity in mice experimentally infected by C. albicans, oral route. On the set-up: species or system Charles River white mice (CD1 strain). The settings on record: for % percentage of survival after day 3 / % percentage of survival after day 6: mice infected by C. albicans, dose 25 mg/kg/os; for PD50 at 8th day / PD50 at 14th day: oral route, probits analysis; for PD50 at 8th day: 8 days from the infection; for PD50 at 14th day: 14 days from the infection. The method, then: Charles River white mice (CD1 strain) weighing from 23 to 25 g, normo-feeded with standard diet and water ad libitum were used.
A suspension (0.2 ml containing 2.5x10^7 cells/ml) of Candida albicans 1040 in physiologic solution was injected to each animal by venous route. Immediately after the infection and after 4, 24 and 48 hours, the animals received by oral route (in arabic gum at 2%) doses increasing in a geometrical progression of the compound to be tested. The infected group was used as control.
The observation of the mortality of the mice was prolonged up to 14 days. From the number of survived animals for each concentration the average protective dose (DP50) was calculated by probits analysis (L.Lison - "Statistica applicata alla biologia sperimentale. La programmazione dell'esperimento e l'analisi dei risultati" - Casa Editrice Ambrosiana, 1961).
Compounds R1 and R2 were used as comparative compounds.
Fluconazole and Itraconazole were used as reference compounds.

In a further assay the test system is C. krusei (2). Kind of assay: In vitro antimycotic activity, strain panel (Table 2). The format is cell-based, Candida krusei. The note with it: Pichia kudriavzevii. The method, then:
as §1, §2, §3, §4
(§5) Note to the table: MIC expressed as µg/ml Within brackets the number of tested strains Table 3

For assay [1], the system named is C. spp * (5) (C. parapsilosis, lusitaniae, kefyr). The description is as above. The assay is classed as cell-based. The note with it: Lodderomyces parapsilosis, C. parapsilosis, lusitaniae, kefyr, 5 strains. The method, then: as §1, §2, §3, §4, §5
Another assay concerns C. albicans (7). The description is as above. The settings on record: Candida albicans, C. albicans, 7 strains. The assay is classed as cell-based. The method, then:
as §1, §2, §3, §4, §5

For a further assay, the system named is Trichosporon sp. (1). Described as above. The assay is classed as cell-based. The note with it: Trichosporon sp., 1 strain; single value under head MIC50 MIC90; read-out: MIC. The method, then:
as §1, §2, §3, §4, §5

Another assay has as its system B. capitatus (1). Described as above. The assay is classed as cell-based. The settings on record: Magnusiomyces capitatus; B. capitatus, 1 strain; single value under head MIC50 MIC90; read-out: MIC. On the procedure: as §1, §2, §3, §4, §5
The next assay relates to C. neoformans (4). Described as above. The assay is classed as cell-based. The note with it: Cryptococcus neoformans, C. neoformans, 4 strains. On the procedure:
as §1, §2, §3, §4, §5

The test system of another assay is C. tropicalis (2). The assay is described as above. The assay is classed as cell-based. The note with it: Candida tropicalis; C. tropicalis, 2 strains; single value or range printed under head MIC50 MIC90; read-out: MIC. The method, then: as §1, §2, §3, §4, §5
For a further assay, the system named is C. glabrata (2). The description is as above. The settings on record: Nakaseomyces glabratus; C. glabrata, 2 strains; single value or range printed under head MIC50 MIC90; read-out: MIC. The format is cell-based, Candida glabrata. The method, then:
as §1, §2, §3, §4, §5

In a further assay the test system is Fusarium sp. Kind of assay: In vitro antimycotic activity against recently isolated Fusarium strains (Tables 2 and 3). The format is cell-based. The note with it: Fusarium. On the procedure: as §1, §2, §3, §4, §5
[2] abbreviates: A. fumigatus, SDB, incubation at 28°C for 7 days, read-out: MIC.
The mark [3] stands for this setting: T.mentagrophytes, SDB, incubation at 28°C for 7 days, read-out: MIC.
Setting [4] is: Candida albicans, C. albicans 1040, YNB, incubation at 35°C for 48 hours, read-out: IC50.
The mark [5] stands for this setting: C. neoformans, YNB, incubation at 35°C for 48 hours, read-out: IC50.

As for `CCC(OC(F)(F)C(F)F)C(C)C(O)(Cn1cncn1)c1ccc(Cl)cc1Cl` (racemic) [Compound 2, (±)-1-(1H-1,2,4-triazolyl)-2-hydroxy-2-(2,4-dichlorophenyl)-3-methyl-4-(1,1,2,2-tetrafluoroethoxy)hexane], the MIC is 4 µg/mL (≈ 9 µM) with A. fumigatus (setting [2]) and 2 µg/mL (≈ 4.5 µM) with T.mentagrophytes (setting [3]). Further, the half-inhibitory concentration (IC50) in the assay on C. albicans 1040 (setting [4]) stood at 0.0312 µg/mL (≈ 0.0702 µM); in the assay on C. neoformans (setting [5]), 0.125 µg/mL (≈ 0.281 µM). For the same molecule, the “% percentage of survival after day 3” value in the assay on Candida albicans 1040 amounted to 100%. For the same molecule, in the assay with Candida albicans 1040, the “% percentage of survival after day 6” value is recorded as 100%.
`CC(C)(COC(F)(F)C(F)F)C(O)(Cn1cncn1)c1ccc(Cl)cc1` (racemic) [Compound 3, (±)-1-(1H-1,2,4-triazolyl)-2-hydroxy-2-(4-chlorophenyl)-3,3-dimethyl-4-(1,1,2,2-tetrafluoroethoxy)butane]: the minimal inhibitory concentration (MIC) in the assay on C. krusei (2) is 0.03 to 0.5 µg/mL (≈ 0.0758 to 1.26 µM); in the assay on A. fumigatus (setting [2]), above 128 µg/mL; in the assay on T.mentagrophytes (setting [3]) it was 1 µg/mL (≈ 2.53 µM); in the assay with Trichosporon sp. (1), 0.12 µg/mL (≈ 0.303 µM); in the assay on B. capitatus (1) it was 0.06 µg/mL (≈ 0.152 µM); in the assay with C. tropicalis (2) it was 0.5 µg/mL (≈ 1.26 µM). Moreover, the MIC in the assay on C. glabrata (2) was in the range of 0.5 to 2 µg/mL (≈ 1.26 to 5.05 µM); against Fusarium sp, 16 to 64 µg/mL (≈ 40.4 to 162 µM). Besides, the MIC50 (in assay [1] (read-out: MIC50); with C. albicans (7) (read-out: MIC50); in the assay on C. neoformans (4) (read-out: MIC50)) was at most 0.03 µg/mL in each case. Further, the MIC90 in assay [1] (read-out: MIC90) was at most 0.03 µg/mL; in the assay with C. albicans (7) (read-out: MIC90), 2 µg/mL (≈ 5.05 µM); in the assay on C. neoformans (4) (read-out: MIC90), 0.5 µg/mL (≈ 1.26 µM). For the same molecule, the IC50 with C. albicans 1040 (setting [4]) and in the assay with C. neoformans (setting [5]) was 0.0625 µg/mL (≈ 0.158 µM) throughout. Moreover, the “% percentage of survival after day 3” value in the assay with Candida albicans 1040 was 100%. Further, in the assay on Candida albicans 1040, the “% percentage of survival after day 6” value is listed as 100%. Moreover, in the assay with Candida albicans 1040, the “PD50 at 8th day” value came to 0.49 mg/kg/os. Besides, the “PD50 at 14th day” value in the assay with Candida albicans 1040 is reported as 1.3 mg/kg/os.
Regarding `CC(COC(F)(F)C(F)F)C(O)(Cn1cncn1)c1ccc(Cl)cc1` (racemic) [Compound 4, (±)-1-(1H-1,2,4-triazolyl)-2-hydroxy-2-(4-chlorophenyl)-3-methyl-4-(1,1,2,2-tetrafluoroethoxy)butane], the MIC in the assay with A. fumigatus (setting [2]) was above 128 µg/mL; in the assay with T.mentagrophytes (setting [3]), 4 µg/mL (≈ 10.5 µM). The IC50 in the assay on C. albicans 1040 (setting [4]) amounted to 0.0312 µg/mL (≈ 0.0817 µM); with C. neoformans (setting [5]) it was 0.5 µg/mL (≈ 1.31 µM). Also, in the assay on Candida albicans 1040, the “PD50 at 8th day” value is recorded as 0.31 mg/kg/os. Moreover, in the assay on Candida albicans 1040, the “PD50 at 14th day” value was determined as 1.29 mg/kg/os.
For the molecule `CC(COC(F)(F)C(F)F)C(O)(Cn1cncn1)c1ccc(F)cc1F` (racemic) [Compound 6, (±)-1-(1H-1,2,4-triazolyl)-2-hydroxy-2-(2.4-difluorophenyl)-3-methyl-4-(1,1,2,2-tetrafluoroethoxy)butane], the MIC in the assay with A. fumigatus (setting [2]) is 16 µg/mL (≈ 41.7 µM); with T.mentagrophytes (setting [3]), 0.5 µg/mL (≈ 1.3 µM). In addition, the results for the IC50 in the assay with C. albicans 1040 (setting [4]) and in the assay on C. neoformans (setting [5]) were 0.0312 µg/mL (≈ 0.0814 µM) and 0.0625 µg/mL (≈ 0.163 µM), respectively. Further, the “PD50 at 8th day” value in the assay on Candida albicans 1040 was 0.42 mg/kg/os. For the same molecule, in the assay with Candida albicans 1040, the “PD50 at 14th day” value is 1.10 mg/kg/os.
`CCC(COC(F)(F)C(F)F)C(O)(Cn1cncn1)c1ccc(F)cc1F` (racemic) [Compound 7, (±)-1-(1H-1,2,4-triazolyl)-2-hydroxy-2-(2,4-difluorophenyl)-3-ethyl-4-(1,1,2,2-tetrafluoroethoxy)butane nitrate]: the results for the MIC with A. fumigatus and against T.mentagrophytes were 16 µg/mL and 0.5 µg/mL, respectively. In addition, the IC50 came out at 0.0312 µg/mL in the assay on C. albicans 1040 (Candida albicans, 1040, 48 h) and 0.125 µg/mL in the assay with C. neoformans (48 h). Further, in the assay with Candida albicans 1040, the “PD50 at 8th day” value amounted to 1.5 mg/kg/os. Further, the “PD50 at 14th day” value in the assay with Candida albicans 1040 is 2.19 mg/kg/os.
In the case of `CC(C)(COC(F)(F)C(F)F)C(O)(Cn1cncn1)c1ccc(Cl)cc1Cl` (racemic) [Compound 8, (±)-1-(1H-1,2,4-triazolyl)-2-hydroxy-2-(2,4-dichlorophenyl)-3,3-dimethyl-4-(1,1,2,2-tetrafluoroethoxy)butane], the MIC in the assay on A. fumigatus (setting [2]) is above 4 µg/mL; in the assay on T.mentagrophytes (setting [3]), 0.25 µg/mL (≈ 0.581 µM). Moreover, the values for the IC50 with C. albicans 1040 (setting [4]) and in the assay on C. neoformans (setting [5]) were 0.0312 µg/mL (≈ 0.0725 µM) and 0.0156 µg/mL (≈ 0.0363 µM), respectively.
